Experimental data from patent US20030224023A1, “Cosmetic compositions with hydroxy amine salts of malonic acid” (Unilever Home & Personal Care USA, Division of Conopco, Inc., priority 2002, published 2003).

Description: This formula contains 8% Glycolic acid or 0.1053 equivalents, neutralized with 2.4% ammonia hydroxide which is 0.0395 equivalents, resulting in a final formula pH of 3.8. The DMAE formula contains 2.58% malonic acid or 0.0496 equivalents, neutralized with 3.20% DMAE which is 0.0358 equivalents, resulting in a final formula pH of 5.5. […] The clinical involved (49) panelists over a six week period. Panelists were required to apply each product to one half of their face. After application, the panelists were required to answer a series of questions regarding relative effectiveness of the products.
The effect of pH was evaluated with another set of panelists numbering (58) persons utilizing a formulation at pH 6.5. In this set, 2.05% or 0.0394 equivalents of Malonic acid was neutralized with 3.17% or 0.0356 equivalents of DMAE resulting in a formula with a pH of 6.5. In this formula the malonic acid was 90.35% neutralized with the DMAE. In both DMAE formulas the lower pKa malonic acid group was totally neutralized, depending on the amount of malonic acid present in each formula. The second higher pKa acid group was partially neutralized with the remaining DMAE equivalents to bring the pH up to the desired value.

CN(C)CCO.O=C(O)CC(=O)O [DMAE malonate, dimethylaminoethanol (DMAE) malonate]
improving the general condition of skin (compared with ammonium glycolate): as effective as ammonium glycolate | irritation (compared with the ammonium glycolate composition): considerably less irritating than the ammonium glycolate composition
